Measured values reported in patent publication US20020026053A1, “Novel 3-(substituted) -2- indolinones compounds and use thereof as inhibitors of protein kinase activity” (priority 1997, published 2002).

Biological target: T1, Met receptor (EGFR/Met chimeric cells, EMR) (Homo sapiens, UniProt P08581)
T1 construct: expressed in transfected cells; the other entry of the earlier key: EGFR (P00533, Epidermal growth factor receptor)
Test: Met Autophosphorylation Assay
Assay type: biochemical
Experimental: Met Autophosphorylation Assay
This assay determines Met tyrosine kinase activity by analyzing Met protein tyrosine kinase levels on the Met receptor.
a. HNTG (5× stock solution): Dissolve 23.83 g HEPES and 43.83 g NaCl in about 350 ml dH2O. Adjust pH to 7.2 with HCl or NaOH, add 500 ml glycerol and 10 ml Triton X-100, mix, add dH2O to 1 L total volume. To make 1 L of 1× working solution add 200 ml 5× stock solution to 800 ml dH2O, check and adjust pH as necessary, store at 4° C.
b. PBS (Dulbecco's Phosphate-Buffered Saline), Gibco Cat. # 450-1300EB (1× solution).
c. Blocking Buffer: in 500 ml dH2O place 100 g BSA, 12.1 g Tris-pH7.5, 58.44 g NaCl and 10 ml Tween-20, dilute to 1 L total volume.
d. Kinase Buffer: To 500 ml dH2O add 12.1 g TRIS (pH 7.2), 58.4 g NaCl, 40.7 g MgCl2 and 1.9 g EGTA; bring to 1 L total volume with dH2O.
e. PMSF (Phenylmethylsulfonyl fluoride), Sigma Cat. # P-7626, to 435.5 mg, add 100% ethanol to 25 ml total volume, vortex.
f. ATP (Bacterial Source), Sigma Cat. # A-7699, store powder at −20° C.; to make up solution for use, dissolve 3.31 mg in 1 ml dH2O.
g. RC-20H HRPO Conjugated Anti-Phosphotyrosine, Transduction Laboratories Cat. # E120H.
h. Pierce 1-Step Turbo™ B-ELISA (3,3′,5,5′-tetramethylbenzidine, Pierce Cat. # 34022.
i. H2SO4, add 1 ml conc.(18 N) to 35 ml dH2O.
j. TRIS HCL, Fischer Cat. # BP152-5; to 121.14 g of material, add 600 ml MilliQ H2O, adjust pH to 7.5 (or 7.2) with HCl, bring volume to 1 L with MilliQ H2O.
k. NaCl, Fischer Cat. # S271-10, make up 5M solution.
m. Na3VO4, Fischer Cat. # S454-50, to 1.8 g material add 80 ml MilliQ H2O, adjust pH to 10.0 with HCl or NaOH, boil in microwave, cool, check pH, repeat procedure until pH stable at 10.0, add MilliQ H2O to 100 ml total volume, make 1 ml aliquots and store at −80° C.
n. MgCl2, Fischer Cat. # M33-500, make up 1M solution.
o. HEPES, Fischer Cat. # BP310-500, to 200 ml MilliQ H2O, add 59.6 g material, adjust pH to 7.5, bring volume to 250 ml total, sterile filter.
p. Albumin, Bovine (BSA), Sigma Cat. # A-4503, to 30 grams material add sterile distilled water to make total volume of 300 ml, store at 4° C.
q. TBST Buffer: to approx. 900 ml dH2O in a 1 L graduated cylinder add 6.057 g TRIS and 8.766 g NaCl, when dissolved, adjust pH to 7.2 with HCl, add 1.0 ml Triton X-100 and bring to 1 L total volume with dH2O.
r. Goat Affinity purified antibody Rabbit IgG (whole molecule), Cappel Cat. # 55641.
s. Anti h-Met (C-28) rabbit polyclonal IgG antibody, Santa Cruz Chemical Cat. # SC-161.
t. Transiently Transfected EGFR/Met chimeric cells (EMR) (Komada, et al., Oncogene, 8:2381-2390 (1993).
u. Sodium Carbonate Buffer, ([…], Fischer Cat. # S495) to 10.6 g material add 800 ml MilliQ H2O, when dissolved adjust pH to 9.6 with NaOH, bring up to 1 L total volume with MilliQ H2O, filter, store at 4° C.
All of the following steps are conducted at room temperature unless it is specifically indicated otherwise. All ELISA plate washing is by rinsing 4× with TBST.
This procedure can be performed the night before or immediately prior to the start of receptor capture.
1. Quick thaw lysates in a 37° C. waterbath with a swirling motion until the last crystals disappear.
2. Lyse cell pellet with 1× HNTG containing 1 mM PMSF. Use 3 ml of HNTG per 15 cm dish of cells. Add ½ the calculated HNTG volume, vortex the tube for 1 min., add the remaining amount of HNTG, vortex for another min.
3. Balance tubes, centrifuge at 10,000× g for 10 min at 4° C.
4. Pool supernatants, remove an aliquot for protein determination.
5. Quick freeze pooled sample in dry ice/ethanol bath. This step is performed regardless of whether lysate will be stored overnight or used immediately following protein determination.
6. Perform protein determination using standard bicinchoninic acid (BCA) method (BCA Assay Reagent Kit from Pierce Chemical Cat. # 23225).
1. Coat Corning 96 well ELISA plates with 5 μg per well Goat anti-Rabbit antibody in Carbonate Buffer for a total well volume of 50 μl. Store overnight at 4° C. […]

T1 sequence (P08581 with tags, fused parts or gaps): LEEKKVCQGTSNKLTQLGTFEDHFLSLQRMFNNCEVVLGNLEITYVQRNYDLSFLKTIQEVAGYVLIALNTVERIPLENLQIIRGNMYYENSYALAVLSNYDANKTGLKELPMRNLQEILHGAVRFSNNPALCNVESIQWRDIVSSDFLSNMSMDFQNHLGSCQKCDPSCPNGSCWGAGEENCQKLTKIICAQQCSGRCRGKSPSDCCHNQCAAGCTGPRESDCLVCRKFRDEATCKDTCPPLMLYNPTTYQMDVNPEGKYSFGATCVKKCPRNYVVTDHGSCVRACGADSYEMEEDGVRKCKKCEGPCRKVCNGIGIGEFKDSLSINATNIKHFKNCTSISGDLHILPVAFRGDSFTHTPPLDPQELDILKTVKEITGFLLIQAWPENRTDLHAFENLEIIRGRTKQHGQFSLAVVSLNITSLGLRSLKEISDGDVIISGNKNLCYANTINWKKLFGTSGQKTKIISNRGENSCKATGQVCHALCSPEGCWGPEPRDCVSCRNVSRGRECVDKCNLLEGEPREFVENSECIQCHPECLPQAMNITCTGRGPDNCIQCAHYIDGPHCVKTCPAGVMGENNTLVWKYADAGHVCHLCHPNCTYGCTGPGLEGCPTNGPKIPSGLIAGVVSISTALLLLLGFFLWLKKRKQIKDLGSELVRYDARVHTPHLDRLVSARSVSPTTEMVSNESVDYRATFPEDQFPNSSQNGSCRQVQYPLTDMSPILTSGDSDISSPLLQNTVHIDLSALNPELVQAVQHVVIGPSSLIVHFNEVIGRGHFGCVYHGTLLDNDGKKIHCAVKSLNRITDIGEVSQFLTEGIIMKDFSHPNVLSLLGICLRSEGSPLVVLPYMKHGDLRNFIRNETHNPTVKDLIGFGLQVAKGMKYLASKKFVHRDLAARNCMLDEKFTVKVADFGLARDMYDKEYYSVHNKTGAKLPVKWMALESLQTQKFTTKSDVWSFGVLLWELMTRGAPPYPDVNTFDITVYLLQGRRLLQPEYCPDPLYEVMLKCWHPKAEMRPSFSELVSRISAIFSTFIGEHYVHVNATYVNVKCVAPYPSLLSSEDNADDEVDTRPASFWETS

Row | SMILES | Met Kinase % Inhibition (P.130) [%]
1 | CCOC(=O)c1c(C)[nH]c(C=C2C(=O)Nc3c(Br)cc(Br)c(C)c32)c1C [10718/H02] | 31.5
2 | COc1cc(Br)c(O)c(C=C2C(=O)Nc3c(Br)cc(Br)c(C)c32)c1 [10718/H03] | 90.8
3 | Cc1c(Br)cc(Br)c2c1C(=Cc1ccc3ccccc3c1O)C(=O)N2 [10718/H04] | 84.3
4 | CCOC(=O)CCc1c(C(=O)OCC)[nH]c(C=C2C(=O)Nc3c(Br)cc(Br)c(C)c32)c1CC(=O)OCC [10718/H05] | 13.5
5 | CCOC(=O)c1cc(C=C2C(=O)Nc3c(Br)cc(Br)c(C)c32)oc1C [10718/H06] | 32.2
6 | COC(=O)c1[nH]c(C)c(C=C2C(=O)Nc3c(Br)cc(Br)c(C)c32)c1C(=O)OC [10718/H07] | 52.7
7 | Cc1c(Br)cc(Br)c2c1C(=Cc1ccc(Cl)c([N+](=O)[O-])c1)C(=O)N2 [10718/H08] | 14.4
8 | CCOc1cccc(C=C2C(=O)Nc3c(Br)cc(Br)cc32)c1O [10734/A02] | 51.1
9 | O=C1Nc2c(Br)cc(Br)cc2C1=Cc1cc(Cl)cc(Cl)c1O [10734/A03] | 87.8
10 | O=C1Nc2c(Br)cc(Br)cc2C1=Cc1cc(Cl)ccc1O [10734/A04] | 68.0
11 | CCN(CC)c1ccc(C=C2C(=O)Nc3c(Br)cc(Br)cc32)c(O)c1 [10734/A05] | 69.9
12 | O=C1Nc2c(Br)cc(Br)cc2C1=Cc1ccc([N+](=O)[O-])cc1 [10734/A06] | 46.9
13 | O=C1Nc2c(Br)cc(Br)cc2C1=Cc1cc(Br)cc(Br)c1O [10734/A07] | 89.3
14 | O=C1Nc2c(Br)cc(Br)cc2C1=Cc1cccc(F)c1O [10734/A08] | 71.5
15 | O=C1Nc2c(Br)cc(Br)cc2C1=Cc1ccc(O)c(Br)c1 [10734/A09] | 88.4
16 | CC(C)(C)c1ccc(C=C2C(=O)Nc3c(Br)cc(Br)cc32)cc1 [10734/A10] | 55.4
17 | O=C1Nc2c(Br)cc(Br)cc2C1=Cc1ccc(Br)s1 [10734/A11] | 51.9

Row | SMILES | Met Kinase % Inhibition (P.130) [%]
18 | CCOc1cccc(C=C2C(=O)Nc3ccc(I)cc32)c1O [10734/B02] | 61.9
19 | O=C1Nc2ccc(I)cc2C1=Cc1cc(Cl)cc(Cl)c1O [10734/B03] | 90.1
20 | O=C1Nc2ccc(I)cc2C1=Cc1cc(Cl)ccc1O [10734/B04] | 88.4
21 | CCN(CC)c1ccc(C=C2C(=O)Nc3ccc(I)cc32)c(O)c1 [10734/B05] | 67.8
22 | O=C1Nc2ccc(I)cc2C1=Cc1ccc([N+](=O)[O-])cc1 [10734/B06] | 91.2
23 | O=C1Nc2ccc(I)cc2C1=Cc1cc(Br)cc(Br)c1O [10734/B07] | 93.2
24 | O=C1Nc2ccc(I)cc2C1=Cc1cccc(F)c1O [10734/B08] | 56.1
25 | O=C1Nc2ccc(I)cc2C1=Cc1ccc(O)c(Br)c1 [10734/B09] | 94.3
26 | CC(C)(C)c1ccc(C=C2C(=O)Nc3ccc(I)cc32)cc1 [10734/B10] | 82.6
27 | O=C1Nc2ccc(I)cc2C1=Cc1ccc(Br)s1 [10734/B11] | 83.6
28 | CCOc1cccc(C=C2C(=O)Nc3ccc(Br)c(C)c32)c1O [10734/C02] | 78.6
29 | Cc1c(Br)ccc2c1C(=Cc1cc(Cl)cc(Cl)c1O)C(=O)N2 [10734/C03] | 88.2
30 | Cc1c(Br)ccc2c1C(=Cc1cc(Cl)ccc1O)C(=O)N2 [10734/C04] | 90.7
31 | CCN(CC)c1ccc(C=C2C(=O)Nc3ccc(Br)c(C)c32)c(O)c1 [10734/C05] | 52.7
32 | Cc1c(Br)ccc2c1C(=Cc1ccc([N+](=O)[O-])cc1)C(=O)N2 [10734/C06] | 48.3
33 | Cc1c(Br)ccc2c1C(=Cc1cc(Br)cc(Br)c1O)C(=O)N2 [10734/C07] | 96.8
